Experimental data as given in ChEMBL document CHEMBL2157956, “Antibacterial activity of substituted dibenzo[a,g]quinolizin-7-ium derivatives” (2012).
In brackets after ≈: the same amount, converted by molar mass. Activity calls are given as the source filed them. The rule behind the calls is not given here.

Assays:
Staphylococcus aureus [1] = assay: Antibacterial activity against methicillin-sensitive Staphylococcus aureus 8325-4 by CLSI broth microdilution method; assay type: functional
Staphylococcus aureus [2] = assay: Antibacterial activity against methicillin-resistant Staphylococcus aureus ATCC 33591 by CLSI broth microdilution method; assay type: functional
Enterococcus faecalis [3] = assay: Antibacterial activity against vancomycin-sensitive Enterococcus faecalis ATCC 19433 by CLSI broth microdilution method; assay type: functional
Enterococcus faecalis [4] = assay: Antibacterial activity against vancomycin-resistant Enterococcus faecalis ATCC 51575 by CLSI broth microdilution method; assay type: functional
[5] = target: T1, Cell division protein FtsZ (Staphylococcus aureus) (UniProt P0A031); assay: Induction of Staphylococcus aureus FtsZ self-polymerization assessed as increase in light scattering at 20 ug/mL by 90 deg angle light scattering assay; conditions: TDE = time-dependent effect
T1 sequence (whole entry): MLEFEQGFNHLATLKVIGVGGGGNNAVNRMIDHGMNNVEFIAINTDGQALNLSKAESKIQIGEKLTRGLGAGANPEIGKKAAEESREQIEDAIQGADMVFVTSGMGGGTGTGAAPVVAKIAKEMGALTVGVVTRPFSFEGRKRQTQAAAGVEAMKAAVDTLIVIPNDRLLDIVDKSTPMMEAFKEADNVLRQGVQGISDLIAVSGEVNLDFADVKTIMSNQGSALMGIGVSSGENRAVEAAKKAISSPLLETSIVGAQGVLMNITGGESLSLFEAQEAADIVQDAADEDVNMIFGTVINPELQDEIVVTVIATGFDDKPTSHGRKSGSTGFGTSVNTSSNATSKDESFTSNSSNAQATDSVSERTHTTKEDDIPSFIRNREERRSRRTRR

[6] = target: T1, Cell division protein FtsZ (Staphylococcus aureus); assay: Inhibition of Staphylococcus aureus FtsZ self-polymerization assessed as decrease in light scattering at 20 ug/mL by 90 deg angle light scattering assay; conditions: TDE = time-dependent effect
[7] = target: T1, Cell division protein FtsZ (Staphylococcus aureus); assay: Induction of Staphylococcus aureus FtsZ self-polymerization assessed as increase in light scattering at 20 ug/mL measured every 5 secs by 90 deg angle light scattering assay
[8] = target: T1, Cell division protein FtsZ (Staphylococcus aureus); assay: Induction of Staphylococcus aureus FtsZ self-polymerization assessed as increase in light scattering at 10 ug/mL by 90 deg angle light scattering assay; conditions: TDE = time-dependent effect

SMILES | MIC (Staphylococcus aureus [1]) [µg/mL] | MIC (Staphylococcus aureus [2]) [µg/mL] | MIC (Enterococcus faecalis [3]) [µg/mL] | MIC (Enterococcus faecalis [4]) [µg/mL] | Activity [5] | inhibition [6] | Activity [7] | Activity [8]
CC(=O)OS(=O)(=O)[O-].COc1cc2cc[n+]3c(C)c4cc(OC)c(OC)c(-c5ccc(-c6ccccc6)cc5)c4cc3c2cc1OC | 1 | 4 | 4 | 32 | tde | tde |  | 
COc1cc2cc3c4cc(-c5ccc(-c6ccccc6)cc5)c(OC)c(OC)c4cc[n+]3cc2cc1OC.[Cl-] | 2 | 2 | 8 | 4 |  |  |  | 
CC(=O)OS(=O)(=O)[O-].COc1cc2cc3c4cc(-c5ccccc5)c(OC)c(OC)c4cc[n+]3c(C)c2cc1OC | 2 | 8 | 8 | 16 |  |  |  | 
CC(=O)OS(=O)(=O)[O-].COc1cc2cc3c4cc(-c5ccc(C)cc5)c(OC)cc4cc[n+]3c(C)c2cc1OC | 4 | 8 | 8 | > 64 |  |  |  | 
COc1cc2cc3c4cc(-c5ccccc5)c(OC)cc4cc[n+]3cc2cc1OC.[Cl-] | 8 | 32 | 32 | 64 |  |  |  | 
CN[C@H](CC(C)C)C(=O)N[C@H]1C(=O)N[C@@H](CC(N)=O)C(=O)N[C@H]2C(=O)N[C@H]3C(=O)N[C@H](C(=O)N[C@H](C(=O)O)c4cc(O)cc(O)c4-c4cc3ccc4O)[C@H](O)c3ccc(c(Cl)c3)Oc3cc2cc(c3O[C@@H]2O[C@H](CO)[C@@H](O)[C@H](O)[C@H]2O[C@H]2C[C@](C)(N)[C@H](O)[C@H](C)O2)Oc2ccc(cc2Cl)[C@H]1O [VANCOMYCIN] |  |  | 1 (≈ 0.69 µM) | > 64 |  |  |  | 
CC(=O)OS(=O)(=O)[O-].COc1cc2cc3c4cc(-c5ccc(-c6ccccc6)cc5)c(OC)c(OC)c4cc[n+]3c(C)c2cc1OC | 1 | 2 | 4 | 8 |  |  |  | 
COc1ccc2cc3[n+](cc2c1OC)CCc1cc2c(cc1-3)OCO2 [BERBERINE] | > 64 | > 64 | > 64 | > 64 |  |  |  | 
CC(=O)OS(=O)(=O)[O-].COc1cc2cc3c4cc(-c5ccc(C(C)(C)C)cc5)c(OC)c(OC)c4cc[n+]3c(C)c2cc1OC | 1 | 2 | 4 | 4 |  |  |  | 
COc1cc2cc[n+]3cc4cc(OC)c(OC)c(-c5ccc(-c6ccccc6)cc5)c4cc3c2cc1OC.[Cl-] | 2 | 4 | 8 | 32 |  |  |  | 
Cc1onc(-c2ccccc2)c1C(=O)N[C@@H]1C(=O)N2[C@@H]1SC(C)(C)[C@@H]2C(=O)O [OXACILLIN] | 0.06 (≈ 0.149 µM) | > 64 | 8 (≈ 19.9 µM) | > 64 |  |  | inactive | 
CC(=O)OS(=O)(=O)[O-].COc1cc2c(C)[n+]3ccc4c(OC)c(OC)ccc4c3cc2c(-c2ccc(-c3ccccc3)cc2)c1OC | 1 | 4 | 16 | 16 |  |  |  | 
CC(C)C(=O)OS(=O)(=O)[O-].COc1cc2cc3c4cc(-c5ccc(-c6ccccc6)cc5)c(OC)c(OC)c4cc[n+]3c(C(C)C)c2cc1OC | 0.5 | 0.5 | 2 | 2 | tde |  |  | tde
COc1cc2cc3c4cc(-c5ccccc5)c(OC)c(OC)c4cc[n+]3cc2cc1OC.[Cl-] | 4 | 8 | 16 | 32 |  |  |  | 
CC[C@H]1OC(=O)[C@H](C)[C@@H](O[C@H]2C[C@@](C)(OC)[C@@H](O)[C@H](C)O2)[C@H](C)[C@@H](O[C@@H]2O[C@H](C)C[C@H](N(C)C)[C@H]2O)[C@](C)(O)C[C@@H](C)C(=O)[C@H](C)[C@@H](O)[C@]1(C)O [ERYTHROMYCIN] | 0.13 (≈ 0.177 µM) | > 64 | 1 (≈ 1.36 µM) | > 64 |  |  |  | 
COc1cc2cc3c4cc(-c5ccc(C)cc5)c(OC)cc4cc[n+]3cc2cc1OC.[Cl-] | 2 | 8 | 16 | > 64 |  |  |  | 
COc1cc2cc3c4cc(-c5ccc(C(C)(C)C)cc5)c(OC)c(OC)c4cc[n+]3cc2cc1OC.[Cl-] | 4 | 4 | 4 | 8 |  |  |  | 
CN(C)[C@@H]1C(O)=C(C(N)=O)C(=O)[C@@]2(O)C(O)=C3C(=O)c4c(O)cccc4[C@@](C)(O)[C@H]3C[C@@H]12 [TETRACYCLINE] | 0.06 (≈ 0.135 µM) | 64 (≈ 144 µM) | 0.5 (≈ 1.13 µM) | > 64 |  |  |  | 
CC(=O)OS(=O)(=O)[O-].COc1cc2cc3c4cc(-c5ccccc5)c(OC)cc4cc[n+]3c(C)c2cc1OC | 8 | > 64 | > 64 | > 64 |  |  |  | 
CC(=O)OS(=O)(=O)[O-].COc1cc2cc3c4cc(-c5cccc6ccccc56)c(OC)c(OC)c4cc[n+]3c(C)c2cc1OC | 1 | 2 | 4 | 8 |  |  |  | 
COc1cc2cc3c4cc(-c5cccc6ccccc56)c(OC)c(OC)c4cc[n+]3cc2cc1OC.[Cl-] | 4 | 2 | 8 | 8 |  |  |  | 
COc1cc2c[n+]3ccc4c(OC)c(OC)ccc4c3cc2c(-c2ccc(-c3ccccc3)cc2)c1OC.[Cl-] | 2 | 8 | 8 | 16 |  |  |  | 
CCC[C@@H]1C[C@@H](C(=O)N[C@@H]([C@H]2O[C@H](SC)[C@H](O)[C@@H](O)[C@H]2O)[C@H](C)Cl)N(C)C1 [CLINDAMYCIN] | 0.03 (≈ 0.0706 µM) | > 64 | 2 (≈ 4.71 µM) | > 64 |  |  |  | 
